Reference: ChEMBL document CHEMBL1201862, “PubChem BioAssay data set” (2004)
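How tested: cells in 96-well plates exposed to compound for 48 hours at five concentrations. Here, GI50 denotes the concentration required for 50% inhibition of growth.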 Active and inactive are the calls of the source. No stated cut-off is given here; in the data, active = GI50 up to about 1.1 µM and inactive = higher.

Legend:
Experiment in all cases: NCI-60 cell line screen, 48 h
CAKI-1 = test system: CAKI-1
CCRF-CEM = test system: CCRF-CEM
DU-145 = test system: DU-145
HCC 2998 = test system: HCC 2998
HOP-62 = test system: HOP-62
IGROV-1 = test system: IGROV-1
M14 = test system: M14
MDA-MB-231 = test system: MDA-MB-231
MDA-MB-435 = test system: MDA-MB-435
NCI-H226 = test system: NCI-H226
NCI-H460 = test system: NCI-H460
RXF 393 = test system: RXF 393
SF-268 = test system: SF-268
SF-295 = test system: SF-295
SNB-75 = test system: SNB-75
SW-620 = test system: SW-620
T47D = test system: T47D
HL-60 = test system: HL-60

Measured: GI50

O=c1[nH]c(=O)n(C2CC(O)C(CO)O2)c2nc3cc4ccccc4cc3nc12 (configuration not stated)
inactive: CAKI-1 > 100 µM | CCRF-CEM 36.6 µM | DU-145 > 100 µM | HCC 2998 > 100 µM | HOP-62 33.9 µM | IGROV-1 98.4 µM | M14 > 100 µM | MDA-MB-231 52.7 µM | MDA-MB-435 > 100 µM | NCI-H226 > 100 µM | NCI-H460 > 100 µM | RXF 393 26.5 µM | SF-268 73.1 µM | SF-295 75.2 µM | SNB-75 74.8 µM | SW-620 > 100 µM | T47D > 100 µM

CC1(c2sccc2Cl)CC(c2sccc2Cl)=C(C#N)C(=C(C#N)C#N)N1 (configuration not stated)
inactive: CAKI-1 20.2 µM | CCRF-CEM 38.4 µM | DU-145 16 µM | HCC 2998 14.5 µM | HL-60 34.2 µM | HOP-62 19.3 µM | IGROV-1 23 µM | M14 18.6 µM | MDA-MB-231 21.9 µM | MDA-MB-435 22 µM | NCI-H460 19 µM | RXF 393 16.4 µM | SF-268 20.2 µM | SF-295 17.9 µM | SW-620 18.8 µM | T47D 14.2 µM

COc1cc2c(cc1OCCCOS(C)(=O)=O)N=C[C@@H]1CCCN1C2=O
inactive: CAKI-1 > 100 µM | DU-145 > 100 µM | HCC 2998 > 100 µM | HL-60 > 100 µM | IGROV-1 > 100 µM | M14 > 100 µM | MDA-MB-231 > 100 µM | MDA-MB-435 > 100 µM | NCI-H226 > 100 µM | NCI-H460 > 100 µM | RXF 393 > 100 µM | SF-268 > 100 µM | SF-295 > 100 µM | SW-620 > 100 µM | T47D > 100 µM

O=[N+]([O-])c1cccc(-c2ncc3c(n2)-c2ccccc2C3)c1
inactive: CAKI-1 42.7 µM | CCRF-CEM > 100 µM | DU-145 > 100 µM | HL-60 > 100 µM | IGROV-1 53.2 µM | M14 > 100 µM | MDA-MB-231 20.5 µM | MDA-MB-435 > 100 µM | NCI-H226 > 100 µM | NCI-H460 > 100 µM | RXF 393 95.1 µM | SF-268 51.6 µM | SF-295 54.3 µM | SNB-75 23.1 µM | SW-620 > 100 µM | T47D > 100 µM

COC(=O)CC1c2ccccc2N2C(=O)Cc3c([nH]c4ccccc34)C12 (configuration not stated)
inactive: CAKI-1 > 100 µM | CCRF-CEM > 100 µM | DU-145 > 100 µM | HCC 2998 > 100 µM | HOP-62 36.5 µM | IGROV-1 > 100 µM | M14 > 100 µM | MDA-MB-231 > 100 µM | MDA-MB-435 > 100 µM | NCI-H226 > 100 µM | NCI-H460 > 100 µM | RXF 393 > 100 µM | SF-268 > 100 µM | SF-295 7.93 µM | SNB-75 > 100 µM | SW-620 > 100 µM | T47D > 100 µM

COc1ccc2[nH]c(CCNC(=O)c3cc([N+](=O)[O-])cc([N+](=O)[O-])c3)cc2c1
inactive: CAKI-1 26.1 µM | CCRF-CEM > 100 µM | DU-145 > 100 µM | HL-60 > 100 µM | HOP-62 12.3 µM | IGROV-1 26.5 µM | M14 > 100 µM | MDA-MB-231 25.4 µM | MDA-MB-435 > 100 µM | NCI-H226 71.1 µM | NCI-H460 > 100 µM | RXF 393 18.1 µM | SF-268 25 µM | SNB-75 19.4 µM | SW-620 > 100 µM | T47D 29.9 µM
